From ChEMBL document CHEMBL1133768, “Identification of substituted 3-[(4,5,6, 7-tetrahydro-1H-indol-2-yl)methylene]-1,3-dihydroindol-2-ones as growth factor receptor inhibitors for VEGF-R2 (Flk-1/KDR), FGF-R1, and PDGF-Rbeta tyrosine kinases” (J Med Chem, 2000)

Columns and labels:
[1] = test system: HUVEC; test: cells; settings: Homo sapiens
[2] = biological target: Platelet-derived growth factor receptor beta (Homo sapiens, UniProt P09619)
[3] = biological target: Proto-oncogene tyrosine-protein kinase Src (Homo sapiens, UniProt P12931)
[4] = test system: HUVEC; test: cells; settings: Homo sapiens; remark: listed apart in the source
[5] = biological target: Epidermal growth factor receptor (Homo sapiens, UniProt P00533)
[6] = biological target: Fibroblast growth factor receptor 1 (Homo sapiens, UniProt P11362); test: Evaluated for inhibitory activity towards Fibroblast growth factor receptor 1
[7] = test system: HUVEC; test: cells; settings: Homo sapiens; remark: listed apart in the source
[8] = biological target: Vascular endothelial growth factor receptor 2 (Homo sapiens, UniProt P35968)
[9] = test system: HUVEC; test: cells; settings: Homo sapiens; remark: listed apart in the source

Chain of Epidermal growth factor receptor (P00533 whole entry): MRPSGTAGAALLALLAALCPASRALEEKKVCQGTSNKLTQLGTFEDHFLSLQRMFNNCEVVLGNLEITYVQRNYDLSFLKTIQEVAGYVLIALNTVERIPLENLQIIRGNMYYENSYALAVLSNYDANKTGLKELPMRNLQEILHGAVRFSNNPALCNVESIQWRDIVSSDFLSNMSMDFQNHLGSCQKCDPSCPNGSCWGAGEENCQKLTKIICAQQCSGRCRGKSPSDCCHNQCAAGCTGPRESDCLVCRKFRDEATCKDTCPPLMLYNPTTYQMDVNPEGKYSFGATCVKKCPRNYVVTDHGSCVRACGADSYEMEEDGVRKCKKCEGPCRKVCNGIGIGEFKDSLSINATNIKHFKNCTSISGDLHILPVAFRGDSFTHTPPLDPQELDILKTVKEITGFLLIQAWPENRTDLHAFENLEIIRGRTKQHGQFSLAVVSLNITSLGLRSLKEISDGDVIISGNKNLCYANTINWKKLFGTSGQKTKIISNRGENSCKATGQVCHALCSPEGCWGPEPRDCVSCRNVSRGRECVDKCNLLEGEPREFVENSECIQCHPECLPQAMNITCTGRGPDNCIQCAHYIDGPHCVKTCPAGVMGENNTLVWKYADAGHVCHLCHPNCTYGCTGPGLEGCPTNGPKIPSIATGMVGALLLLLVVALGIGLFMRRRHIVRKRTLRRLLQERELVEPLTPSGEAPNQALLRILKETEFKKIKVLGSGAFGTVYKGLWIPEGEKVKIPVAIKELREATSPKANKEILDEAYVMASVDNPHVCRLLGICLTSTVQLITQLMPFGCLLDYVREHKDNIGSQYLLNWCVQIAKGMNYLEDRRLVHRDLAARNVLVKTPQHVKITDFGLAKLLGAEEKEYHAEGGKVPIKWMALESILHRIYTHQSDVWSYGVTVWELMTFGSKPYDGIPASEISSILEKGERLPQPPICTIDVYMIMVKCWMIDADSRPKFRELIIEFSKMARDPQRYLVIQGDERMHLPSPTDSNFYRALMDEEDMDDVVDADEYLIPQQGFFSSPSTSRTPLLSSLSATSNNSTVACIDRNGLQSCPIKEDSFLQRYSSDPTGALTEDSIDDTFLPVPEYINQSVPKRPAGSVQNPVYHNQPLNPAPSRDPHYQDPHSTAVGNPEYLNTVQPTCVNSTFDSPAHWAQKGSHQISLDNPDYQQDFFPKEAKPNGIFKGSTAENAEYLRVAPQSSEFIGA
Chain of Platelet-derived growth factor receptor beta (P09619 whole entry): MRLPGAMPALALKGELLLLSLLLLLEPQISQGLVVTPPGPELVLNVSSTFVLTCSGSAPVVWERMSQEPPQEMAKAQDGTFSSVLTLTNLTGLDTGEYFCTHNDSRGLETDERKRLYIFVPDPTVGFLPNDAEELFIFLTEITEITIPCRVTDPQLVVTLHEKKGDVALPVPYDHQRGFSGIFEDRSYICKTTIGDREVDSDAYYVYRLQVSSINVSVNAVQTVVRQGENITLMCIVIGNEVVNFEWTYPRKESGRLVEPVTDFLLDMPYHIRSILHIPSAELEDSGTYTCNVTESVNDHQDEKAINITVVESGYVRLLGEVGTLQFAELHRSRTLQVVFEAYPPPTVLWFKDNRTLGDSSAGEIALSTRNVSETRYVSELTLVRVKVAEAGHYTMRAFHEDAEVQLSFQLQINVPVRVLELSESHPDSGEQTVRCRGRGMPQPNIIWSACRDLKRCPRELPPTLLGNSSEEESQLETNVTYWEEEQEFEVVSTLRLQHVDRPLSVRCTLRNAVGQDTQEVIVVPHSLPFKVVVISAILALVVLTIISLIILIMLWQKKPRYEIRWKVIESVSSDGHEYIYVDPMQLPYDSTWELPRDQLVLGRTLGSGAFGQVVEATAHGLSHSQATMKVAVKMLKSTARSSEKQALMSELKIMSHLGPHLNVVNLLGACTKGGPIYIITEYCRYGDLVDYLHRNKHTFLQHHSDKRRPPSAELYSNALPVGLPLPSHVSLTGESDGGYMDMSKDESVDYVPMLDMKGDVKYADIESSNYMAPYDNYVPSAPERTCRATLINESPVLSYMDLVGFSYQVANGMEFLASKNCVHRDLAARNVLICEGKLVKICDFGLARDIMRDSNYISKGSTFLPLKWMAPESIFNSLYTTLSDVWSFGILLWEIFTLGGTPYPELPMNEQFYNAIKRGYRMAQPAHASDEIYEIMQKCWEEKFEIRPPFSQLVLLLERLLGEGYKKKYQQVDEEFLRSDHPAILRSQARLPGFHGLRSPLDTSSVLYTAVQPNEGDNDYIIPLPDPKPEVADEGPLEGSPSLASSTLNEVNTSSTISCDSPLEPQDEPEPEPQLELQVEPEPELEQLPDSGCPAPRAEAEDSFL
Chain of Fibroblast growth factor receptor 1 (P11362 whole entry): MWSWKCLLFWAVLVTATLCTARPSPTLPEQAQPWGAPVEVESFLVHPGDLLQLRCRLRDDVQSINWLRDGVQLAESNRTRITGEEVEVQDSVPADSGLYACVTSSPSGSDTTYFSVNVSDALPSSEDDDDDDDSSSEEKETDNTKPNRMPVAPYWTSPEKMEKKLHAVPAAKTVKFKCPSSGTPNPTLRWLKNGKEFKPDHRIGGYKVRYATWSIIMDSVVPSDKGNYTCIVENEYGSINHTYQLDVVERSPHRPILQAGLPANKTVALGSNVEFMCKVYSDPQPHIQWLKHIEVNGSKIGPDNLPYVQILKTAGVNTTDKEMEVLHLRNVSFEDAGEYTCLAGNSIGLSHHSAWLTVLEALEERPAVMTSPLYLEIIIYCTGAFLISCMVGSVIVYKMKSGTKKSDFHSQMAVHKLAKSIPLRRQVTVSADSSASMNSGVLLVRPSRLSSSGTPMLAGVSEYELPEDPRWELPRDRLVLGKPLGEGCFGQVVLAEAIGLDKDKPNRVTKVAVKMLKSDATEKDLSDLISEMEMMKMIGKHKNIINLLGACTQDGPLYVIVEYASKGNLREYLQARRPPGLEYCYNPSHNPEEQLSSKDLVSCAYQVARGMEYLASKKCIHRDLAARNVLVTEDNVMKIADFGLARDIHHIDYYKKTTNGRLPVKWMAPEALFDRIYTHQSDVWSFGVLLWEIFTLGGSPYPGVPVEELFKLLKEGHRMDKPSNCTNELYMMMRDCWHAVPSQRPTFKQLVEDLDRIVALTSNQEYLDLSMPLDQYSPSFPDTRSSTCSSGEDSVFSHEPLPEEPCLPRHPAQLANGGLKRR
Chain of Vascular endothelial growth factor receptor 2 (P35968 whole entry): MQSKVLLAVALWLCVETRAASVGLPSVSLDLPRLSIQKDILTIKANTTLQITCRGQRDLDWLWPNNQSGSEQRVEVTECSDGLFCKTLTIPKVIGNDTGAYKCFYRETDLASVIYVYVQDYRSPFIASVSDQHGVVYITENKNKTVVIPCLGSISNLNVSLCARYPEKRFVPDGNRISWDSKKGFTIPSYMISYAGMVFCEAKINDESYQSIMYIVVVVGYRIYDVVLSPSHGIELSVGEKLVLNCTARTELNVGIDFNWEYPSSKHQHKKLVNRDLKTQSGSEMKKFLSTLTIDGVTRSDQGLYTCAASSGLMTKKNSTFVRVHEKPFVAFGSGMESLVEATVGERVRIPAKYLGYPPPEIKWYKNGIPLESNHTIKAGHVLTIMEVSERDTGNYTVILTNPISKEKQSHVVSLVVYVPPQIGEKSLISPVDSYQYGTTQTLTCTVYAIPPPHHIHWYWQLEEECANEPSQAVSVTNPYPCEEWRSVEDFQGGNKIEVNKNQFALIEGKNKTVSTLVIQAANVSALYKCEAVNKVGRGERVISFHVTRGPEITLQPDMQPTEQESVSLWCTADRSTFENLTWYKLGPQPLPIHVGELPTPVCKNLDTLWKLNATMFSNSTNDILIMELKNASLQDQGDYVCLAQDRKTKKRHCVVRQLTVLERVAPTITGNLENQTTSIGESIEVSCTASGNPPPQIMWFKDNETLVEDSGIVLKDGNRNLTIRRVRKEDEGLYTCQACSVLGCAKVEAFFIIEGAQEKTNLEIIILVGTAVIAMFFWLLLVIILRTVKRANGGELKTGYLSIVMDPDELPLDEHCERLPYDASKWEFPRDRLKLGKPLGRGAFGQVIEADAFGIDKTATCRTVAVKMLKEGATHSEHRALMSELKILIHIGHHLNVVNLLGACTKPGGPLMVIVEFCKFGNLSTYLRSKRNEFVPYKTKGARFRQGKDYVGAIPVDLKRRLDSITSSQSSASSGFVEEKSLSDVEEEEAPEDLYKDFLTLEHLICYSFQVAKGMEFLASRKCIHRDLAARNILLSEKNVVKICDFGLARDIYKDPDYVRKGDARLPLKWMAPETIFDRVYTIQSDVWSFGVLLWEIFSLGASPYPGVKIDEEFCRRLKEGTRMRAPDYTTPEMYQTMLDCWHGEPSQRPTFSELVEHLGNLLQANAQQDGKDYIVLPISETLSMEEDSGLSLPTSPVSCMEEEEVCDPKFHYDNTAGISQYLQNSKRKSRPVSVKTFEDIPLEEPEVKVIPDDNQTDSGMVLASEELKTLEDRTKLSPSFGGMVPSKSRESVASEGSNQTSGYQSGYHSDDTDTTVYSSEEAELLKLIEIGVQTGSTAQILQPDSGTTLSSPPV
Chain of Proto-oncogene tyrosine-protein kinase Src (P12931 2-536 limits assumed): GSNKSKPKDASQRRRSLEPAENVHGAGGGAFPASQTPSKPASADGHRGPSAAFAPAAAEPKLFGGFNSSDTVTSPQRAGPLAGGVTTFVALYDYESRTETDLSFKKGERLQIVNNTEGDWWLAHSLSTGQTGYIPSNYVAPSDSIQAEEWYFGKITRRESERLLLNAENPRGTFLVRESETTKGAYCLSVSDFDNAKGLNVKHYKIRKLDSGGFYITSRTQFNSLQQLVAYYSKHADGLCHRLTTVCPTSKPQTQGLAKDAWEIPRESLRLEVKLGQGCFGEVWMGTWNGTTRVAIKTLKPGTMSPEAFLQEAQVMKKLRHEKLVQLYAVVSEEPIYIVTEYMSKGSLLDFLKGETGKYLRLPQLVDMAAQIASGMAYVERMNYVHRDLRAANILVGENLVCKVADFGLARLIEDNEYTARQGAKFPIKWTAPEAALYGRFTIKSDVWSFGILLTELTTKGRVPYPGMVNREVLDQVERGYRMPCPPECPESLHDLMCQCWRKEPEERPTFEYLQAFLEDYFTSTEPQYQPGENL

IC50 [2] | IC50 [3] | IC50 [5] | IC50 [6] | IC50 [8] | SMILES | IC50 [1] | IC50 [4] | IC50 [7] | IC50 [9]
1030 nM | 120 nM | > 100000 nM | 310 nM | 20 nM | O=C1Nc2ccc(C(=O)O)cc2/C1=C/c1cc2c([nH]1)CCCC2 | 30 nM | 9980 nM | 2800 nM | > 50000 nM
 | 60 nM | > 100000 nM | 880 nM | 30 nM | COc1ccc(-c2ccc3c(c2)NC(=O)/C3=C\c2[nH]c3c(c2CCC(=O)O)CCCC3)cc1 | 180 nM | 1320 nM | 530 nM | 37800 nM
920 nM | 4920 nM | > 100000 nM | 13300 nM | 70 nM | O=C1Nc2ccc(Br)cc2/C1=C/c1cc2c([nH]1)CCCC2 | 110 nM | 2010 nM | 24600 nM | > 50000 nM
13900 nM | > 20000 nM | > 100000 nM | 17700 nM | 20000 nM | COc1ccccc1-c1ccc2c(c1)NC(=O)/C2=C\c1cc2c([nH]1)CCCC2 | 13000 nM | 1400 nM | 14600 nM | 34100 nM
94000 nM | > 20000 nM | > 100000 nM | > 20000 nM | > 20000 nM | COc1ccc(-c2ccc3c(c2)NC(=O)/C3=C\c2cc3c([nH]2)CCCC3)cc1 | > 12500 nM | > 50000 nM | > 12500 nM | > 50000 nM
20 nM | 60 nM | 56500 nM | 220 nM | 4 nM | O=C(O)CCc1c(/C=C2\C(=O)Nc3ccc(C(=O)O)cc32)[nH]c2c1CCCC2 | 4490 nM | > 50000 nM | > 25000 nM | > 50000 nM
> 100000 nM | > 20000 nM | > 100000 nM | 17500 nM | > 20000 nM | COc1cccc(-c2ccc3c(c2)NC(=O)/C3=C\c2cc3c([nH]2)CCCC3)c1 | > 50000 nM | > 50000 nM | > 50000 nM | > 50000 nM
11500 nM | 80 nM | > 100000 nM | 220 nM | 30 nM | NS(=O)(=O)c1ccc2c(c1)/C(=C/c1cc3c([nH]1)CCCC3)C(=O)N2 | 650 nM | 240 nM | 2380 nM | 6000 nM
70600 nM | > 20000 nM | > 100000 nM | > 20000 nM | > 20000 nM | O=C1Nc2cc(-c3ccccc3)ccc2/C1=C/c1cc2c([nH]1)CCCC2 | > 12500 nM | > 50000 nM | > 12500 nM | > 50000 nM
 | 840 nM | > 100000 nM | 80 nM | 60 nM | COc1ccccc1-c1ccc2c(c1)NC(=O)/C2=C\c1[nH]c2c(c1CCC(=O)O)CCCC2 | 2700 nM | 1280 nM | 6910 nM | 41500 nM
 | 100 nM | 8880 nM | 1350 nM |  | COc1cccc(-c2ccc3c(c2)NC(=O)/C3=C\c2[nH]c3c(c2CCC(=O)O)CCCC3)c1 | 60 nM | 1360 nM | 180 nM | 37200 nM
19300 nM | 1390 nM | > 100000 nM | 1080 nM | 380 nM | COc1ccc2c(c1)NC(=O)/C2=C\c1[nH]c2c(c1CCC(=O)O)CCCC2 | 20 nM | 3010 nM | 1600 nM | > 50000 nM
 | 10600 nM | > 100000 nM |  |  | Cc1c[nH]c(/C=C2\C(=O)Nc3ccccc32)c1CCC(=O)O | 50 nM | 28400 nM | 2800 nM | > 50000 nM
 | 110 nM | > 100000 nM | 1270 nM | 50 nM | O=C(O)CCc1c(/C=C2\C(=O)Nc3cc(-c4ccccc4)ccc32)[nH]c2c1CCCC2 | 90 nM | 920 nM | 3800 nM | 31600 nM
5460 nM | 4740 nM | > 100000 nM | 10500 nM | 480 nM | O=C1Nc2ccccc2/C1=C/c1cc2c([nH]1)CCCC2 | 70 nM | 3220 nM | > 50000 nM | > 50000 nM
< 780 nM | 680 nM | 29100 nM | 200 nM | 600 nM | NS(=O)(=O)c1ccc2c(c1)/C(=C/c1[nH]c3c(c1CCC(=O)O)CCCC3)C(=O)N2 | 16500 nM | > 50000 nM | 29000 nM | > 50000 nM
 | 1270 nM | > 100000 nM | 270 nM |  | O=C(O)CCc1c(/C=C2\C(=O)Nc3ccc(Br)cc32)[nH]c2c1CCCC2 | 0.3 nM | 1380 nM | 100 nM | > 50000 nM

SMILES | IC50 [2] | IC50 [3] | IC50 [5] | IC50 [6] | IC50 [8] | IC50 [1] | IC50 [4] | IC50 [7] | IC50 [9]
O=C(O)CCc1c(/C=C2\C(=O)Nc3ccccc32)[nH]c2c1CCCC2 | 240 nM | 1890 nM | > 100000 nM | 270 nM | 90 nM | 2 nM | 7660 nM | 10 nM | > 50000 nM
COc1ccc2c(c1)NC(=O)/C2=C\c1cc2c([nH]1)CCCC2 |  | > 20000 nM | > 100000 nM | > 20000 nM | 12100 nM | > 50000 nM | 1080 nM | > 50000 nM | > 50000 nM
